The record followed here is US20230092890A1, “1, 3, 4-Oxadiazole derivative compounds as histone deacetylase 6 inhibitor, and the pharmaceutical composition comprising the same” (Chong Kun Dang Pharmaceutical Corp., priority 2019, published 2023).

The IC50 is the concentration that inhibits the measured activity by half.

One test deals with T1, HDAC6 human recombinant (Homo sapiens, UniProt Q9UBN7).
T1 construct: purchased Calbiochem 382180
T1 sequence (Q9UBN7 1-1215): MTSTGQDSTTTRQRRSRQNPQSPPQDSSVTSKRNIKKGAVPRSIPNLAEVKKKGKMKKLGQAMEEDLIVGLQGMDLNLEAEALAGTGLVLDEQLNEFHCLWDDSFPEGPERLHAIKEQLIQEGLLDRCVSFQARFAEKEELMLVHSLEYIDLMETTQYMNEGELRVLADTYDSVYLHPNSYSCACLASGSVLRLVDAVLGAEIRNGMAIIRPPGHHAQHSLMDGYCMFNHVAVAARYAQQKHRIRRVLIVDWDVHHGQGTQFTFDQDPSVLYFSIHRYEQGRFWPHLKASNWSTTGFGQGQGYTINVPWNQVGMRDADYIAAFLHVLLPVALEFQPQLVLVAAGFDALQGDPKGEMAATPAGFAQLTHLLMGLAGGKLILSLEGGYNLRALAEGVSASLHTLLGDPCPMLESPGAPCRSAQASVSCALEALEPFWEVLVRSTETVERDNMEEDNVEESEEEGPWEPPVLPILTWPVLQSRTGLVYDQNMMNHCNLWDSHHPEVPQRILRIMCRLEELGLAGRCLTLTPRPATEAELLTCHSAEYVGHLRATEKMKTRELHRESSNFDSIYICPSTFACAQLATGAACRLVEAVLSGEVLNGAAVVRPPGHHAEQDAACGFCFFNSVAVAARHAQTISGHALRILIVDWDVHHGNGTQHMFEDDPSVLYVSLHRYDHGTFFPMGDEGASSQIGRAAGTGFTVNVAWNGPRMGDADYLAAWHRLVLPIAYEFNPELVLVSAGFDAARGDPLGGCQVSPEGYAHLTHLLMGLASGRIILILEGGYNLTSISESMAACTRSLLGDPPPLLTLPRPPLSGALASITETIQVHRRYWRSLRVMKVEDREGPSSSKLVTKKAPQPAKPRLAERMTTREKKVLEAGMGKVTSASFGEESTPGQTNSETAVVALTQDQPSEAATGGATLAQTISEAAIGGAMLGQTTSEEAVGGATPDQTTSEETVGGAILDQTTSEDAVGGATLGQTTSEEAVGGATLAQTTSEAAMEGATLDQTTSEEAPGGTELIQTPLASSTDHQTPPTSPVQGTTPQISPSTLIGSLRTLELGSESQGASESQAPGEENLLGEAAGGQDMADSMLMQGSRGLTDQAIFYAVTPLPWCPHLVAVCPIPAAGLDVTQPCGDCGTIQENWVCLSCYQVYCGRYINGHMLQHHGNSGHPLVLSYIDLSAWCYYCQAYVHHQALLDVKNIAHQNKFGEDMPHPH
Put plainly: HDAC enzyme activity inhibition (in vitro), HDAC6 assay. Format: biochemical. As to conditions: samples at 0.1, 1, 10, 100 and 1000 nM; 37° C. 60 minutes; fluorescence Ex 390, Em 460; read-out: HDAC6 IC50. An outline of the steps: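 HDAC6 human recombinant enzyme with fluorimetric substrate; […]. Reaction 60 min at 37° C, then developer 30 min at 37° C; fluorescence read at Ex 390/Em 460.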

In the next test the target is T2, HDAC1 (Homo sapiens, UniProt Q13547).
T2 construct: purchased Enzolifesciences BML-AK511
Kind of test: HDAC enzyme activity inhibition (in vitro), HDAC1 Fluorimetric Drug Discovery Assay Kit. The class given is biochemical. As to conditions: samples at 100, 1000 and 10000 nM; 37° C. 60 minutes; fluorescence Ex 390, Em 460; read-out: HDAC1 IC50. The procedure, abridged: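 HDAC1 was tested at 100, 1000 and 10000 nM and recombinant human HDAC6 at 0.1, 1, 10, 100 and 1000 nM. Enzyme reactions ran 60 min at 37° C, then developer was added for 30 min at 37° C, and fluorescence (Ex 390, Em 460) was read.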

T2 sequence (Q13547 whole entry): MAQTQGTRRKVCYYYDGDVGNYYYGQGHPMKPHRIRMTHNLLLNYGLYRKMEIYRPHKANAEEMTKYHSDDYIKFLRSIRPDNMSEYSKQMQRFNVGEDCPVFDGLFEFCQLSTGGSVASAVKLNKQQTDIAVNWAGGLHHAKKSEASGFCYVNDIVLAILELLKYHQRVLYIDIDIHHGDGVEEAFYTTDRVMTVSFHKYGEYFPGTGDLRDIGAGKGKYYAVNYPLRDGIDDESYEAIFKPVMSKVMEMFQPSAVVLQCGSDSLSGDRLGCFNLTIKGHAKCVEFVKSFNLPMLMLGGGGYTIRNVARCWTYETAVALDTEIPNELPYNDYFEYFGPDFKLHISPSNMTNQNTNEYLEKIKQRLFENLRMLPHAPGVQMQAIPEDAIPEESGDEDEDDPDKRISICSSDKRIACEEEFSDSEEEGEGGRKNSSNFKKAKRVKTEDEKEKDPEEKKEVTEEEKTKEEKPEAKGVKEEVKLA

Take `O=c1oc2cc(-c3ccc(CN4CCOCC4)nc3)c(F)cc2n1Cc1ccc(-c2nnc(C(F)F)o2)cn1` [Compound 332, 3-((5-(5-(difluoromethyl)-1,3,4-oxadiazole-2-yl)pyridine-2-yl)methyl)-5-fluoro-6-(6-(morpholinomethyl)pyridine-3-yl)benzo[d]oxazole-2(3H)-one]: the IC50 is 43 nM at HDAC6 human recombinant and more than 10000 nM on HDAC1.

Regarding `O=c1sc2cc(-c3ccc(CN4CCOCC4)nc3)ccc2n1Cc1ccc(-c2nnc(C(F)F)o2)cn1` [Compound 333, 3-((5-(5-(difluoromethyl)-1,3,4-oxadiazole-2-yl)pyridine-2-yl)methyl)-6-(6-(morpholinomethyl)pyridine-3-yl)benzo[d]thiazole-2(3H)-one], the IC50 was 38 nM at HDAC6 human recombinant and more than 10000 nM on HDAC1.

For the compound `CN1CCC(c2cc3oc(=O)n(Cc4ccc(-c5nnc(C(F)F)o5)cn4)c3cc2F)CC1` [Compound 334, 3-((5-(5-(difluoromethyl)-1,3,4-oxadiazole-2-yl)pyridine-2-yl)methyl)-5-fluoro-6-(1-methylpiperidine-4-yl)benzo[d]oxazole-2(3H)-one], the IC50 on HDAC6 human recombinant is 64 nM; on HDAC1 it was more than 10000 nM.

For `CC(C)N1CCC(c2cc3oc(=O)n(Cc4ccc(-c5nnc(C(F)F)o5)cn4)c3cc2F)CC1` [Compound 335, 3-((5-(5-(difluoromethyl)-1,3,4-oxadiazole-2-yl)pyridine-2-yl)methyl)-5-fluoro-6-(1-isopropylpiperidine-4-yl)benzo[d]oxazole-2(3H)-one], the IC50 was 75 nM on HDAC6 human recombinant and more than 10000 nM at HDAC1.

Consider `O=c1oc2cc(C3CCN(C4COC4)CC3)c(F)cc2n1Cc1ccc(-c2nnc(C(F)F)o2)cn1` [Compound 336, 3-((5-(5-(difluoromethyl)-1,3,4-oxadiazole-2-yl)pyridine-2-yl)methyl)-5-fluoro-6-(1-(oxetan-3-yl)piperidine-4-yl)benzo[d]oxazole-2(3H)-one], for which the IC50 at HDAC6 human recombinant is 44 nM; at HDAC1, more than 10000 nM.

On to `CC(C)(C)OC(=O)N1CCN(c2ncc(-c3cc4oc(=O)n(Cc5ccc(-c6nnc(C(F)F)o6)cn5)c4cc3F)cn2)CC1` [Compound 337, tert-butyl 4-(5-(3-((5-(5-(difluoromethyl)-1,3,4-oxadiazole-2-yl)pyridine-2-yl)methyl)-5-fluoro-2-oxo-2,3-dihydrobenzo[d]oxazole-6-yl)pyrimidine-2-yl)piperazine-1-carboxylate], for which the IC50 on HDAC6 human recombinant was 672 nM; on HDAC1, more than 10000 nM.

In the case of `CN1CCN(c2ncc(-c3cc4oc(=O)n(Cc5ccc(-c6nnc(C(F)F)o6)cn5)c4cc3F)cn2)CC1` [Compound 338, 3-((5-(5-(difluoromethyl)-1,3,4-oxadiazole-2-yl)pyridine-2-yl)methyl)-5-fluoro-6-(2-(4-methylpiperazine-1-yl)pyrimidine-5-yl)benzo[d]oxazole-2(3H)-one], the values for the IC50 on HDAC6 human recombinant and on HDAC1 were 47 nM and more than 10000 nM, respectively.

As for `O=c1oc2cc(-c3cnc(N4CCN(C5COC5)CC4)nc3)c(F)cc2n1Cc1ccc(-c2nnc(C(F)F)o2)cn1` [Compound 339, 3-((5-(5-(difluoromethyl)-1,3,4-oxadiazole-2-yl)pyridine-2-yl)methyl)-5-fluoro-6-(2-(4-(oxetan-3-yl)piperazine-1-yl)pyrimidine-5-yl)benzo[d]oxazole-2(3H)-one], the IC50 at HDAC6 human recombinant was 52 nM; on HDAC1, more than 10000 nM.

`Cn1c(=O)n(Cc2ccc(-c3nnc(C(F)F)o3)cc2F)c2cc(F)c(-c3ccc(CN4CCOCC4)nc3)cc21` [Compound 340, 1-(4-(5-(difluoromethyl)-1,3,4-oxadiazole-2-yl)-2-fluorobenzyl)-6-fluoro-3-methyl-5-(6-(morpholinomethyl)pyridine-3-yl)-1,3-dihydro-2H-benzo[d]imidazole-2-one]: the IC50 was 65 nM on HDAC6 human recombinant and more than 10000 nM at HDAC1.

In the case of `Cn1c(=O)n(Cc2ccc(-c3nnc(C(F)F)o3)cn2)c2cc(F)c(-c3cnc(N4CCN(C(=O)OC(C)(C)C)CC4)nc3)cc21` [Compound 341, tert-butyl 4-(5-(1-((5-(5-(difluoromethyl)-1,3,4-oxadiazole-2-yl)pyridine-2-yl)methyl)-6-fluoro-3-methyl-2-oxo-2,3-dihydro-1H-benzo[d]imidazole-5-yl)pyrimidine-2-yl)piperazine-1-carboxylate], the values for the IC50 on HDAC6 human recombinant and on HDAC1 were 208 nM and more than 10000 nM, respectively.

Take `CN1CCN(c2ncc(-c3cc4c(cc3F)n(Cc3ccc(-c5nnc(C(F)F)o5)cn3)c(=O)n4C)cn2)CC1` [Compound 342, 1-((5-(5-(difluoromethyl)-1,3,4-oxadiazole-2-yl)pyridine-2-yl)methyl)-6-fluoro-3-methy 1-5-(2-(4-methylpiperazine-1-yl)pyrimidine-5-yl)-1,3-dihydro-2H-benzo[d]imidazole-2-one]: the IC50 at HDAC6 human recombinant was 16 nM; on HDAC1, more than 10000 nM.

In the case of `Cn1c(=O)n(Cc2ccc(-c3nnc(C(F)F)o3)cn2)c2cc(F)c(-c3cnc(N4CCN(C5COC5)CC4)nc3)cc21` [Compound 343, 1-((5-(5-(difluoromethyl)-1,3,4-oxadiazole-2-yl)pyridine-2-yl)methyl)-6-fluoro-3-methy 1-5-(2-(4-(oxetan-3-yl)piperazine-1-yl)pyrimidine-5-yl)-1,3-dihydro-2H-benzo[d]imidazole-2-one], the IC50 on HDAC6 human recombinant is 19 nM; at HDAC1, more than 10000 nM.

Take `CC(C)(C)OC(=O)N1CCN(c2ccc(-c3cc4oc(=O)n(Cc5ccc(-c6nnc(C(F)F)o6)cn5)c4cc3F)cn2)CC1` [Compound 344, tert-butyl 4-(5-(3-((5-(5-(difluoromethyl)-1,3,4-oxadiazole-2-yl)pyridine-2-yl)methyl)-5-fluoro-2-oxo-2,3-dihydrobenzo[d]oxazole-6-yl)pyridine-2-yl)piperazine-1-carboxylate]: the IC50 was 671 nM on HDAC6 human recombinant and more than 10000 nM at HDAC1.

On to `O=c1oc2cc(-c3ccc(N4CCNCC4)nc3)c(F)cc2n1Cc1ccc(-c2nnc(C(F)F)o2)cn1` [Compound 345, 3-((5-(5-(difluoromethyl)-1,3,4-oxadiazole-2-yl)pyridine-2-yl)methyl)-5-fluoro-6-(6-(piperazine-1-yl)pyridine-3-yl)benzo[d]oxazole-2(3H)-one], for which the IC50 on HDAC6 human recombinant is 22 nM; at HDAC1, more than 10000 nM.

With `CN1CCN(c2ccc(-c3cc4oc(=O)n(Cc5ccc(-c6nnc(C(F)F)o6)cn5)c4cc3F)cn2)CC1` [Compound 346, 3-((5-(5-(difluoromethyl)-1,3,4-oxadiazole-2-yl)pyridine-2-yl)methyl)-5-fluoro-6-(6-(4-methylpiperazine-1-yl)pyridine-3-yl)benzo[d]oxazole-2(3H)-one], the half-inhibitory concentration (IC50) at HDAC6 human recombinant was 47 nM; at HDAC1, more than 10000 nM.

For `CCN1CCN(c2ccc(-c3cc4oc(=O)n(Cc5ccc(-c6nnc(C(F)F)o6)cn5)c4cc3F)cn2)CC1` [Compound 347, 3-((5-(5-(difluoromethyl)-1,3,4-oxadiazole-2-yl)pyridine-2-yl)methyl)-6-(6-(4-ethylpiperazine-1-yl)pyridine-3-yl)-5-fluorobenzo[d]oxazole-2(3H)-one], the IC50 at HDAC6 human recombinant was 62 nM; on HDAC1 it was more than 10000 nM.

In the case of `O=c1oc2cc(-c3cncc(N4CCOCC4)c3)c(F)cc2n1Cc1ccc(-c2nnc(C(F)F)o2)cn1` [Compound 348, 3-((5-(5-(difluoromethyl)-1,3,4-oxadiazole-2-yl)pyridine-2-yl)methyl)-5-fluoro-6-(5-morpholinopyridine-3-yl)benzo[d]oxazole-2(3H)-one], the IC50 on HDAC6 human recombinant is 25 nM; on HDAC1, more than 10000 nM.
